{
  "source": "ChEMBL document CHEMBL1153123",
  "about": "“Antiplasmodial activity of piperazine sulfonamides” (Bioorg Med Chem Lett, 2010)",
  "key": {"Plasmodium falciparum [1]": {"test_system": "Plasmodium falciparum", "assay": "Antiplasmodial activity against Plasmodium falciparum 3D7 in human O+ erythrocytes after 72 hrs by DAPI staining", "assay_type": "functional, organism-based", "details": "3D7, 72 h"}, "Plasmodium falciparum [2]": {"test_system": "Plasmodium falciparum", "assay": "Antiplasmodial activity against Plasmodium falciparum Dd2 in human O+ erythrocytes after 72 hrs by DAPI staining", "assay_type": "functional, organism-based", "details": "Dd2, 72 h"}},
  "data": [
    {"smiles": "O=S(=O)(c1ccc(Br)cc1Cl)N1CCN(C(=S)NCc2ccccc2)CC1", "values": [
      {"measurement": "EC50", "setting": "Plasmodium falciparum [1]", "result": 830, "unit": "nM"},
      {"measurement": "EC50", "setting": "Plasmodium falciparum [2]", "result": 873, "unit": "nM"}
    ]},
    {"smiles": "N=C(NCc1ccccc1)N1CCN(S(=O)(=O)c2ccc([N+](=O)[O-])cc2)CC1", "values": [
      {"measurement": "EC50", "setting": "Plasmodium falciparum [1]", "result": "> 25000", "unit": "nM"},
      {"measurement": "EC50", "setting": "Plasmodium falciparum [2]", "result": "> 25000", "unit": "nM"}
    ]},
    {"smiles": "O=S(=O)(c1ccccc1F)N1CCN(C(=S)NCc2ccccc2)CC1", "values": [
      {"measurement": "EC50", "setting": "Plasmodium falciparum [1]", "result": 2410, "unit": "nM"},
      {"measurement": "EC50", "setting": "Plasmodium falciparum [2]", "result": 3130, "unit": "nM"}
    ]},
    {"smiles": "O=S(=O)(c1cccc(F)c1)N1CCN(C(=S)NCc2ccccc2)CC1", "values": [
      {"measurement": "EC50", "setting": "Plasmodium falciparum [1]", "result": 1470, "unit": "nM"},
      {"measurement": "EC50", "setting": "Plasmodium falciparum [2]", "result": 1970, "unit": "nM"}
    ]},
    {"smiles": "O=[N+]([O-])c1ccc(S(=O)(=O)N2CCN(C(=S)NCCc3ccccc3)CC2)cc1", "values": [
      {"measurement": "EC50", "setting": "Plasmodium falciparum [2]", "result": 211, "unit": "nM"}
    ]},
    {"smiles": "O=[N+]([O-])c1ccc(S(=O)(=O)N2CCN(C(=S)NCC3CCCO3)CC2)cc1", "note": "(stereo not drawn)", "values": [
      {"measurement": "EC50", "setting": "Plasmodium falciparum [1]", "result": 313, "unit": "nM"},
      {"measurement": "EC50", "setting": "Plasmodium falciparum [2]", "result": 337, "unit": "nM"}
    ]},
    {"smiles": "O=[N+]([O-])c1ccc(S(=O)(=O)N2CCN(C(=S)NCc3ccco3)CC2)cc1", "values": [
      {"measurement": "EC50", "setting": "Plasmodium falciparum [1]", "result": 64, "unit": "nM"},
      {"measurement": "EC50", "setting": "Plasmodium falciparum [2]", "result": 117, "unit": "nM"}
    ]},
    {"smiles": "COCCNC(=S)N1CCN(S(=O)(=O)c2ccc([N+](=O)[O-])cc2)CC1", "values": [
      {"measurement": "EC50", "setting": "Plasmodium falciparum [1]", "result": 310, "unit": "nM"},
      {"measurement": "EC50", "setting": "Plasmodium falciparum [2]", "result": 354, "unit": "nM"}
    ]},
    {"smiles": "O=[N+]([O-])c1ccc(S(=O)(=O)N2CCC(C(=S)NCc3ccccc3)CC2)cc1", "values": [
      {"measurement": "EC50", "setting": "Plasmodium falciparum [1]", "result": 6060, "unit": "nM"},
      {"measurement": "EC50", "setting": "Plasmodium falciparum [2]", "result": 6190, "unit": "nM"}
    ]},
    {"smiles": "O=[N+]([O-])c1ccc(S(=O)(=O)N2CCN(C(=S)CCc3ccccc3)CC2)cc1", "values": [
      {"measurement": "EC50", "setting": "Plasmodium falciparum [1]", "result": 1250, "unit": "nM"},
      {"measurement": "EC50", "setting": "Plasmodium falciparum [2]", "result": 1690, "unit": "nM"}
    ]},
    {"smiles": "O=S(=O)(c1ccc(Cl)cc1)N1CCN(C(=S)NCc2ccc(Cl)cc2)CC1", "values": [
      {"measurement": "EC50", "setting": "Plasmodium falciparum [2]", "result": 400, "unit": "nM"}
    ]},
    {"smiles": "O=S(=O)(c1ccc(F)c(F)c1F)N1CCN(C(=S)NCc2ccccc2)CC1", "values": [
      {"measurement": "EC50", "setting": "Plasmodium falciparum [1]", "result": 1520, "unit": "nM"},
      {"measurement": "EC50", "setting": "Plasmodium falciparum [2]", "result": 1610, "unit": "nM"}
    ]},
    {"smiles": "CCOc1ccc(S(=O)(=O)N2CCN(C(=S)NCc3ccccc3)CC2)cc1", "values": [
      {"measurement": "EC50", "setting": "Plasmodium falciparum [1]", "result": 1230, "unit": "nM"},
      {"measurement": "EC50", "setting": "Plasmodium falciparum [2]", "result": 1960, "unit": "nM"}
    ]},
    {"smiles": "O=C(NCc1ccco1)N1CCN(S(=O)(=O)c2ccc(Cl)cc2)CC1", "values": [
      {"measurement": "EC50", "setting": "Plasmodium falciparum [1]", "result": 2550, "unit": "nM"},
      {"measurement": "EC50", "setting": "Plasmodium falciparum [2]", "result": 2300, "unit": "nM"}
    ]},
    {"smiles": "O=S(=O)(c1ccc(Cl)cc1)N1CCN(C(=S)NCC2CCCO2)CC1", "note": "(stereo not drawn)", "values": [
      {"measurement": "EC50", "setting": "Plasmodium falciparum [1]", "result": 667, "unit": "nM"},
      {"measurement": "EC50", "setting": "Plasmodium falciparum [2]", "result": 860, "unit": "nM"}
    ]},
    {"smiles": "O=[N+]([O-])c1ccc(S(=O)(=O)N2CCN(C(=S)NCc3ccccc3)CC2)cc1", "values": [
      {"measurement": "EC50", "setting": "Plasmodium falciparum [1]", "result": 56, "unit": "nM"},
      {"measurement": "EC50", "setting": "Plasmodium falciparum [2]", "result": 103, "unit": "nM"}
    ]},
    {"smiles": "O=S(=O)(c1ccccc1)N1CCN(C(=S)NCc2ccccc2)CC1", "values": [
      {"measurement": "EC50", "setting": "Plasmodium falciparum [1]", "result": 1860, "unit": "nM"},
      {"measurement": "EC50", "setting": "Plasmodium falciparum [2]", "result": 1920, "unit": "nM"}
    ]},
    {"smiles": "O=S(=O)(c1c(Cl)cc(Br)cc1Cl)N1CCN(C(=S)NCc2ccccc2)CC1", "values": [
      {"measurement": "EC50", "setting": "Plasmodium falciparum [1]", "result": 2670, "unit": "nM"},
      {"measurement": "EC50", "setting": "Plasmodium falciparum [2]", "result": 4410, "unit": "nM"}
    ]},
    {"smiles": "C/N=C(/SCc1ccccc1)N1CCN(S(=O)(=O)c2ccc([N+](=O)[O-])cc2)CC1", "values": [
      {"measurement": "EC50", "setting": "Plasmodium falciparum [1]", "result": 11400, "unit": "nM"},
      {"measurement": "EC50", "setting": "Plasmodium falciparum [2]", "result": 13000, "unit": "nM"}
    ]},
    {"smiles": "O=S(=O)(c1ccc(Cl)cc1)N1CCN(C(=S)NCc2ccco2)CC1", "values": [
      {"measurement": "EC50", "setting": "Plasmodium falciparum [1]", "result": 615, "unit": "nM"},
      {"measurement": "EC50", "setting": "Plasmodium falciparum [2]", "result": 544, "unit": "nM"}
    ]},
    {"smiles": "Cc1cc(NCc2ccccc2)nc(N2CCN(S(=O)(=O)c3ccc([N+](=O)[O-])cc3)CC2)n1", "values": [
      {"measurement": "EC50", "setting": "Plasmodium falciparum [1]", "result": 3970, "unit": "nM"},
      {"measurement": "EC50", "setting": "Plasmodium falciparum [2]", "result": 5810, "unit": "nM"}
    ]},
    {"smiles": "O=[N+]([O-])c1ccc(S(=O)(=O)N2CCN(C/C=C/c3ccccc3)CC2)cc1", "values": [
      {"measurement": "EC50", "setting": "Plasmodium falciparum [2]", "result": 6050, "unit": "nM"}
    ]},
    {"smiles": "O=C(CCc1ccccc1)N1CCN(S(=O)(=O)c2ccc([N+](=O)[O-])cc2)CC1", "values": [
      {"measurement": "EC50", "setting": "Plasmodium falciparum [1]", "result": 13500, "unit": "nM"},
      {"measurement": "EC50", "setting": "Plasmodium falciparum [2]", "result": 13600, "unit": "nM"}
    ]},
    {"smiles": "O=[N+]([O-])c1ccc(S(=O)(=O)N2CCN(Cc3ccccc3)CC2)cc1", "values": [
      {"measurement": "EC50", "setting": "Plasmodium falciparum [2]", "result": "> 10000", "unit": "nM"}
    ]},
    {"smiles": "Cc1cc(Nc2ccccc2)nc(N2CCN(S(=O)(=O)c3ccc([N+](=O)[O-])cc3)CC2)n1", "values": [
      {"measurement": "EC50", "setting": "Plasmodium falciparum [1]", "result": 11100, "unit": "nM"},
      {"measurement": "EC50", "setting": "Plasmodium falciparum [2]", "result": 10000, "unit": "nM"}
    ]},
    {"smiles": "CCNC(=S)N1CCN(S(=O)(=O)c2ccccc2C(F)(F)F)CC1", "values": [
      {"measurement": "EC50", "setting": "Plasmodium falciparum [1]", "result": "> 10000", "unit": "nM"},
      {"measurement": "EC50", "setting": "Plasmodium falciparum [2]", "result": "> 10000", "unit": "nM"}
    ]},
    {"smiles": "O=S(=O)(c1ccc(F)cc1)N1CCN(C(=S)NCc2ccccc2)CC1", "values": [
      {"measurement": "EC50", "setting": "Plasmodium falciparum [1]", "result": 447, "unit": "nM"},
      {"measurement": "EC50", "setting": "Plasmodium falciparum [2]", "result": 492, "unit": "nM"}
    ]},
    {"smiles": "O=C(NCc1ccco1)N1CCN(S(=O)(=O)c2ccc([N+](=O)[O-])cc2)CC1", "values": [
      {"measurement": "EC50", "setting": "Plasmodium falciparum [1]", "result": 6410, "unit": "nM"},
      {"measurement": "EC50", "setting": "Plasmodium falciparum [2]", "result": 4480, "unit": "nM"}
    ]},
    {"smiles": "O=C(NCc1ccccc1)C1CCN(S(=O)(=O)c2ccc([N+](=O)[O-])cc2)CC1", "values": [
      {"measurement": "EC50", "setting": "Plasmodium falciparum [1]", "result": 5950, "unit": "nM"},
      {"measurement": "EC50", "setting": "Plasmodium falciparum [2]", "result": 3740, "unit": "nM"}
    ]},
    {"smiles": "CS(=O)(=O)N1CCN(C(=S)NCc2ccco2)CC1", "values": [
      {"measurement": "EC50", "setting": "Plasmodium falciparum [1]", "result": "> 10000", "unit": "nM"},
      {"measurement": "EC50", "setting": "Plasmodium falciparum [2]", "result": "> 10000", "unit": "nM"}
    ]},
    {"smiles": "O=S(=O)(c1ccc2c(c1)OCCO2)N1CCN(C(=S)NCc2ccccc2)CC1", "values": [
      {"measurement": "EC50", "setting": "Plasmodium falciparum [1]", "result": 6490, "unit": "nM"},
      {"measurement": "EC50", "setting": "Plasmodium falciparum [2]", "result": "> 10000", "unit": "nM"}
    ]}
  ]
}
